Test results published in ChEMBL document CHEMBL1201862, “PubChem BioAssay data set” (2004).
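Assay format: 96-well plates, 48-hour exposure. Abbreviation: GI50, concentration required for 50% inhibition of growth.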 Active and inactive are the calls of the source. No stated cut-off is given here; in the data, active = GI50 up to about 1.1 µM and inactive = higher.

Assays:
Experiment in all cases: NCI tumour cell line growth inhibition, 48 h
HOP-92 = tested on: HOP-92
OVCAR-3 = tested on: OVCAR-3
A498 = tested on: A498
NCI-H23 = tested on: NCI-H23
COLO 205 = tested on: COLO 205
Hs-578T = tested on: Hs-578T
M14 = tested on: M14
UO-31 = tested on: UO-31
SW-620 = tested on: SW-620
OVCAR-8 = tested on: OVCAR-8
OVCAR-4 = tested on: OVCAR-4
SR = tested on: SR
HCC 2998 = tested on: HCC 2998
NCI-H522 = tested on: NCI-H522
SF-539 = tested on: SF-539
TK-10 = tested on: TK-10
MDA-MB-435 = tested on: MDA-MB-435
HL-60 = tested on: HL-60
SN12C = tested on: SN12C
HCT-116 = tested on: HCT-116
NCI-H226 = tested on: NCI-H226
IGROV-1 = tested on: IGROV-1
MOLT-4 = tested on: MOLT-4
SK-OV-3 = tested on: SK-OV-3
MCF7 = tested on: MCF7
SK-MEL-5 = tested on: SK-MEL-5
SNB-19 = tested on: SNB-19
EKVX = tested on: EKVX
CCRF-CEM = tested on: CCRF-CEM
BT-549 = tested on: BT-549
Malme-3M = tested on: Malme-3M
NCI-H460 = tested on: NCI-H460
SNB-75 = tested on: SNB-75
HCT-15 = tested on: HCT-15
MDA-MB-231 = tested on: MDA-MB-231
DU-145 = tested on: DU-145
PC-3 = tested on: PC-3
RPMI-8226 = tested on: RPMI-8226
A549 = tested on: A549
RXF 393 = tested on: RXF 393
K562 = tested on: K562
T47D = tested on: T47D
ACHN = tested on: ACHN
SF-268 = tested on: SF-268
NCI/ADR-RES = tested on: NCI/ADR-RES
KM12 = tested on: KM12
UACC-257 = tested on: UACC-257
SK-MEL-28 = tested on: SK-MEL-28
U-251 = tested on: U-251
LOX IMVI = tested on: LOX IMVI
OVCAR-5 = tested on: OVCAR-5
CAKI-1 = tested on: CAKI-1
UACC-62 = tested on: UACC-62
SK-MEL-2 = tested on: SK-MEL-2
MDA-N = tested on: MDA-N
786-0 = tested on: 786-0
HT-29 = tested on: HT-29

`COC(C)(C)CCc1[nH]c2ccccc2c1CC(=O)NCCc1cncn1C` was tested, and the GI50 (HOP-92) was > 100 µM (inactive), the GI50 (OVCAR-3) was > 100 µM (inactive) and the GI50 (A498) was 34.3 µM (inactive). The GI50 (NCI-H23) was > 100 µM (inactive), the GI50 (COLO 205) was > 100 µM (inactive) and the GI50 (Hs-578T) was > 100 µM (inactive). The GI50 (M14) was > 100 µM (inactive), the GI50 (UO-31) was > 100 µM (inactive) and the GI50 (SW-620) was > 100 µM (inactive). For the same compound, the GI50 (OVCAR-8) was > 100 µM (inactive), the GI50 (OVCAR-4) was > 100 µM (inactive) and the GI50 (SR) was > 100 µM (inactive). The GI50 (HCC 2998) was > 100 µM (inactive), the GI50 (NCI-H522) was > 100 µM (inactive) and the GI50 (SF-539) was > 100 µM (inactive). For the same compound, the GI50 (TK-10) was > 100 µM (inactive), the GI50 (MDA-MB-435) was > 100 µM (inactive) and the GI50 (HL-60) was > 100 µM (inactive). For the same compound, the GI50 (SN12C) was > 100 µM (inactive), the GI50 (HCT-116) was > 100 µM (inactive) and the GI50 (NCI-H226) was > 100 µM (inactive). For the same compound, the GI50 (IGROV-1) was > 100 µM (inactive), the GI50 (MOLT-4) was > 100 µM (inactive) and the GI50 (SK-OV-3) was > 100 µM (inactive). For the same compound, the GI50 (MCF7) was > 100 µM (inactive), the GI50 (SK-MEL-5) was > 100 µM (inactive) and the GI50 (SNB-19) was > 100 µM (inactive). For the same compound, the GI50 (EKVX) was > 100 µM (inactive), the GI50 (CCRF-CEM) was > 100 µM (inactive) and the GI50 (BT-549) was > 100 µM (inactive). The GI50 (Malme-3M) was > 100 µM (inactive), the GI50 (NCI-H460) was > 100 µM (inactive) and the GI50 (SNB-75) was > 100 µM (inactive). The GI50 (HCT-15) was > 100 µM, the GI50 (MDA-MB-231) was > 100 µM (inactive) and the GI50 (DU-145) was > 100 µM (inactive). For the same compound, the GI50 (PC-3) was > 100 µM (inactive), the GI50 (RPMI-8226) was > 100 µM (inactive) and the GI50 (A549) was > 100 µM (inactive). For the same compound, the GI50 (RXF 393) was > 100 µM (inactive), the GI50 (K562) was > 100 µM (inactive) and the GI50 (T47D) was > 100 µM (inactive). The GI50 (ACHN) was > 100 µM (inactive), the GI50 (SF-268) was > 100 µM (inactive) and the GI50 (NCI/ADR-RES) was > 100 µM (inactive). The GI50 (KM12) was > 100 µM (inactive), the GI50 (UACC-257) was > 100 µM (inactive) and the GI50 (SK-MEL-28) was > 100 µM (inactive). The GI50 (U-251) was > 100 µM (inactive), the GI50 (LOX IMVI) was > 100 µM (inactive) and the GI50 (OVCAR-5) was > 100 µM (inactive). The GI50 (CAKI-1) was > 100 µM (inactive), the GI50 (UACC-62) was > 100 µM (inactive) and the GI50 (SK-MEL-2) was > 100 µM (inactive). For the same compound, the GI50 (MDA-N) was > 100 µM (inactive), the GI50 (786-0) was > 100 µM (inactive) and the GI50 (HT-29) was > 100 µM (inactive).
